Measurements: patent US7714014B2, “Targeting GLI proteins in human cancer by small molecules” (The Regents of the University of California, priority 2005, dated 2010)

How the values were obtained:
HT29 (colon cancer) = test: Apoptosis analysis (Annexin V FITC, flow cytometry); format: cell-based, human; settings: for % of apoptotic cells: about 3 days
Method: (§1) Apoptosis was analyzed by using an Annexin V FITC Apoptosis Detection Kit (Biosource, Camarillo, Calif.), according to the manufacturer's protocol. After treatment with different small molecule compounds at various concentrations for about 3 days, cells were harvested by trypsinization, stained and immediately analyzed by flow cytometry (FACScan; Decton Dickinson, Franklin Lake, N.J.). Early apoptotic cells with exposed phosphatidylserine but intact cell membranes will bind to Annexin V-FITC, but not propidium iodide (PI). Cells in necrotic or late apoptotic stages will be labeled with both Annexin V-FITC and PI. “% apoptotic cells” or “% apoptosis” refers to the combined early and late apoptotic cells.
Flow cytometry was used to examine apoptosis in colon cancer cell line HT29 after treatment of cells with small molecule compounds FN1-5 and FN1-8. While FN1-5 induced apoptosis in HT29 cells (at 50 μM 35% apoptotic cells were observed; Table 2), no apoptosis was observed after treatment with FN1-8 (Table 3).

[1] = system: Primary cultured NSCLC cells; test: as above; format: cell-based, human; settings: 3 days
Method: (§2) Fresh cancer tissue and adjacent normal tissue from patients undergoing curative primary resection of their tumors were collected at the time of surgery (IRB approval H8714-15319-040), and immediately snap-frozen in liquid nitrogen. These tissue samples were kept at −170° C. in a liquid nitrogen freezer until further use. Primary tissue cultures were prepared as follows: Fresh cancer tissue was obtained with consent from patients undergoing resection, cut into small pieces (1-2 mm in diameter), and then digested with Collagenase A (Roche Applied Science, Indianapolis, Ind.) at room temperature for 2 hours according to manufacture's protocol. Single cells from the digestion were spun down and the cell pellets were washed twice using RPMI 1640 supplemented with 10% fetal bovine serum, penicillin (100 IU/ml) and streptomycin (100 μg/ml). Then, the cells were resuspended in the same medium and cultured in 6-well plates at 37° C. in a humid incubator with 5% CO2 until they were ready for further treatments.
as §1
Flow cytometry was also used to examine apoptosis induced by molecule compounds of the invention. in primary cultured NSCLC cells freshly made from tissue samples. […] For example, app.

[2] = system: primary cultured human mesothelioma cells; test: Cell survival assay (crystal violet); format: cell-based; settings: for cell killing effect: 50 and 100 μM, 3 days
Method: as §2
(§3) Typically, the small molecule compounds of the present invention were dissolved in DMSO at a concentration of 30 mM. The small molecule compounds were then tested under cell culture conditions at different concentrations ranging from 0, 10, 30, 50, to 100 uM. To determine cell survival after treatment, the cells were incubated with the small molecule compounds in 6-well plates for about 3 days. After removal of the cell culture medium, 1-ml of 0.5% crystal violet solution (prepared in 20% ethanol and 20% methanol) was added to stain the cells for 5 min. Then the crystal violet solution was rinsed clean with tap water. Cell survival was estimated based on the density of crystal stained plates.
Next, the effect of different small molecule compounds on primary cultured human mesothelioma cells freshly made from tissue samples was examined. The primary cultures were plated in 6-well plates as described herein and incubated with 50 and 100 μM of each compound (FN1-5, FN1-7, FN1-8, and FN3-5; stocks were dissolved in DMSO at 30 mM) for 3 days. […] (FIG. 8).

[3] = system: hedgehog pathway in melanoma cell line LOX, colon cancer cell line SW480 and primary cultured human mesothelioma cells; test: Semi-quantitative RT-PCR of Hedgehog pathway genes; format: cell-based; settings: data not shown
Method: Total RNA from cell lines or tissue samples was isolated using Qiagen RNeasy Mini Kit (Valencia, Calif.). RT-PCR was performed in GeneAmp PCR system 2700 (Applied Biosystems, Foster City, Calif.) using One-step RT-PCR Kit from Invitrogen Life Technologies (Carlsbad, Calif.). Primers for RT-PCR were obtained from Operon Technologies Inc. (Alameda, Calif.). Primer sequences for amplifying different genes in Hedgehog and Wnt signaling pathways are listed in the table below (Table 1; F, forward primer; R, reverse primer). The expected size of the PCR product is indicated for each primer pair. GAPDH was used as internal control.

[4] = system: Tcf-mediated gene transcription (canonical Wnt signaling) in colon cancer cell line HCT116; test: TOPFLASH (TOP/FOP) assay; format: cell-based, human; settings: HCT116, 30 μM; for TOP/FOP activity: 18-24 hours
Method: Cells were plated in 12-well plates. The TOPFLASH or FOPFLASH reporter plasmid (Upstate; Charlottesville, Va.) was transfected transiently into cells as described above. Tcf-mediated gene transcription was determined by the ratio of pTOPFLASH:pFOPFLASH luciferase activity, each was normalized to luciferase activities of the pRL-TK reporter (co-transfected internal control). All experiments were performed in triplicate, and repeated three times.
As another specificity test of the small molecule compounds of the invention, it was tested whether small molecule compounds FN1-5, FN1-7, FN1-8, FN1-9U, FN1-9S, FN2-1, and FN3-5 could regulate the transcription activity of the canonical Wnt signaling by using TOP/FOP assay.

[5] = system: human esophageal cancer cell lines SEG-1, TE-7, BIC-1, and OE21; test: Cell survival assay (crystal violet); format: cell-based; settings: for cell killing: 50 μM
Method: as §3
The cell-based cytotoxicity assay described herein was used to determine the effect of small molecule compounds FN1-5 and FN1-8 in the human esophageal cancer cell lines SEG-1, TE-7, BIC-1, and OE21. Viability of these cells was analyzed after treatment with 10, 30 and 50 μM FN1-5 or FN1-8.

| SMILES | % of apoptotic cells (HT29 (colon cancer); HT29, 10 μM) | % of apoptotic cells (HT29 (colon cancer); HT29, 30 μM) | % of apoptotic cells (HT29 (colon cancer); HT29, 50 μM) | % of apoptotic cells ([1]; 30 μM) | % of apoptotic cells ([1]; 50 μM) | cell killing effect [2] | modulation of hedgehog pathway (RT-PCR) [3] | TOP/FOP activity [4] | cell killing [5] | apoptosis induction (HT29 (colon cancer); HT29, flow cytometry) | % of apoptotic cells ([1]; 10 μM) | cell killing potency compared with FN1-5 ([2]; same dose) | reduction of TOP/FOP activity [4] | cell killing potency compared with FN1-5 [5] |
| --- | --- | --- | --- | --- | --- | --- | --- | --- | --- | --- | --- | --- | --- | --- |
| O=C(NCCCCCO)C1C(c2ccccc2)=NN(c2ccccc2)C1c1ccccc1 (stereo not shown) [FN1-5, N-(5-Hydroxypentyl)-1,3,5-triphenyl-4,5-dihydro-pyrazole-4-carboxyamide] | 5.8% | 15.5% | 32.9% | 11.2% | 19.8% | Dramatic cell killing effect | modulate the hedgehog pathway | down-regulate TOP/FOP activity dramatically | dramatic cell killing |  |  |  |  |  |
| O=C(NCCc1ccc(O)cc1)C1C(c2ccccc2)=NN(c2ccccc2)C1c1ccccc1 (stereo not shown) [FN1-8, N-(2-(4-Hydroxyphenyl)ethyl)-1,3,5-triphenyl-4,5-dihydro-pyrazole-4-carboxyamide] |  | 3.1% | 5.3% | 13.1% | 58.0% | Dramatic cell killing effect | modulate the hedgehog pathway | down-regulate TOP/FOP activity dramatically | dramatic cell killing | no apoptosis | 9.8% | more potent than FN1-5 | about 36% | more potent |
